Where two headings read alike, the source gives them in different places.
Assays:
rat GnRH receptor = biological target: T1, rat GnRH receptor (Rattus norvegicus, UniProt P30969); assay: Radioligand binding, 125I-GnRH-A, rat pituitary membranes; design: membranes were prepared from rat pituitary; from tissue; host or cells: rat pituitary
T1 sequence (P30969 1-327): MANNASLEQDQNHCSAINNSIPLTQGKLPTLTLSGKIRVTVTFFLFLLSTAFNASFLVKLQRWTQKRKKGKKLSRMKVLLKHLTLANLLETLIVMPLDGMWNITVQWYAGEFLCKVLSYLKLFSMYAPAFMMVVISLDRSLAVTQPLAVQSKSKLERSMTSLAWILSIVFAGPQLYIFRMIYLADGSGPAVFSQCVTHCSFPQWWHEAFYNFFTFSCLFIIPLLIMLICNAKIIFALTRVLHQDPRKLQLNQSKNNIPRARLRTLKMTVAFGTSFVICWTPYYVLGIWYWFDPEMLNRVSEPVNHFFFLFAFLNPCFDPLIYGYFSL
Summary of the method: (§1)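 Bound label captured on 0.1% polyethyleneimine-treated GF/C filters, washed three times with PBS, counted. IC50 derived; identical set-up for every species.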

bovine GnRH receptor = biological target: T2, bovine GnRH receptor (Bos taurus, UniProt P32236); assay: Radioligand binding, 125I-GnRH-A, bovine pituitary membranes
T2 construct: membranes were prepared from bovine pituitary; from tissue; host or cells: bovine pituitary
T2 sequence (P32236 1-328): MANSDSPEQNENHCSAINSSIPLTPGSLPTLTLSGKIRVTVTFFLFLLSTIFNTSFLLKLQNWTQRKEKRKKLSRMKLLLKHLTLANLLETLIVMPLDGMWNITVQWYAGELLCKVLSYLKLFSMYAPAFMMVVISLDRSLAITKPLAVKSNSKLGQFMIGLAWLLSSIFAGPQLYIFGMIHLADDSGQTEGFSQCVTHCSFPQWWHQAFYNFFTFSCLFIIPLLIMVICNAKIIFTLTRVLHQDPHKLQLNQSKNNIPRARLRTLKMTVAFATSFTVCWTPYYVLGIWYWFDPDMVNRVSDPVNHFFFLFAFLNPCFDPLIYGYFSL
Method: All compounds were diluted in 1% DMSO (final assay concentration) in binding assay buffer. […] Reactions were terminated by rapid filtration onto 96-well Packard GF/C filters soaked in 0.1% polyethyleneimine. Filters were washed three times with PBS buffer, dried and counted on a Packard Topcount by liquid scintillation counting.
Assay conditions were identical for assessing compound activities at other species. […] IC50 values for control peptides and test compounds were calculated utilizing GraphPad Prism™ software.
The reaction mixture was vortexed and incubated for 1 min at room temperature. After one min, the mixture was vortexed and allowed to incubate for an additional minute. 2 ml of 0.5 M acetic acid/1% BSA was added to the reaction tube and the mixture was added to a C18 Sep-Pak cartridge. The cartridge was washed with subsequent washes of 5 ml H2O and 5 ml 0.5M acetic acid and then eluted with 5×1 ml of 60% CH3CN/40% 0.5M acetic acid. The eluate was diluted with 3× volume of HPLC buffer A (0.1% TFA in H2O) and loaded onto a C18 column. […] The radioactive fractions (750 ed/fraction) are collected into clean polypropylene tubes containing 100 μl of 10% BSA. Fractions were assessed for biological activity by radioligand binding.

human GnRH receptor = biological target: T3, human GnRH receptor (Homo sapiens, UniProt P30968); assay: Radioligand binding, 125I-GnRH-A displacement, membranes of HEK 293 cells with human GnRH receptor
T3 construct: expressed in transfected cells; host or cells: HEK 293 (hGnRH-R/293, from Dr. Stuart Sealfon)
T3 sequence (P30968 1-328): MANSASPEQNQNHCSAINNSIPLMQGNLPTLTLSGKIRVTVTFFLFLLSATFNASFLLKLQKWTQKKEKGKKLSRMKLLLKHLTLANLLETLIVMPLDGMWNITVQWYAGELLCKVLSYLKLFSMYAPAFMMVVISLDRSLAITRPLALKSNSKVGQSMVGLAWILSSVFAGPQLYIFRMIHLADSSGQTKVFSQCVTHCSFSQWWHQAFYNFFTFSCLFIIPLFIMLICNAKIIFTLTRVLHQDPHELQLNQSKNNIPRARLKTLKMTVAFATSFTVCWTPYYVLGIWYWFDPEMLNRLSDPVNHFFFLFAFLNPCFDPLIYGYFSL
Summary of the method: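 Bound tracer was separated by filtration through polyethyleneimine-soaked GF/C filters and counted by liquid scintillation. IC50 from curve fitting; other species were tested under the same conditions.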

mouse GnRH receptor = biological target: T4, mouse GnRH receptor (Mus musculus, UniProt Q01776); assay: Radioligand binding, 125I-GnRH-A, 293 cells expressing mouse GnRH receptors
T4 construct: expressed in transfected cells; host or cells: 293 cells
T4 sequence (Q01776 1-327): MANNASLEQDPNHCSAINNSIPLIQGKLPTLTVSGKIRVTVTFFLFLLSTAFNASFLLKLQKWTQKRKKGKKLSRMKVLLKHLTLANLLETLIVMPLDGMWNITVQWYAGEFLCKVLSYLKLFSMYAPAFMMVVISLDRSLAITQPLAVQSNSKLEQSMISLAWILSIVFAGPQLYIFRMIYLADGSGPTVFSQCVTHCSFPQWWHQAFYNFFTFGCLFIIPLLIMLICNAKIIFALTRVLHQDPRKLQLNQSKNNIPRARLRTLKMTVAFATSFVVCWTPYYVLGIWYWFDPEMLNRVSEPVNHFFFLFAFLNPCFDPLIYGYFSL
Summary of the method: as §1

[1] = Pharmacokinetic studies / bioavailability in rats; assay type: in vivo, rat; conditions: male, rat, plasma, 10 mg/kg, rat male; for half-life: iv
[2] = Metabolism rate, pmol/min/mg at 1 μM, human; assay type: in vitro ADME; conditions: 1 μM compound
[3] = Metabolism rate, pmol/min/mg at 1 μM, rat male; assay type: in vitro ADME; conditions: 1 μM compound
[4] = means ± SE of at least three experiments performed in duplicate, read-out: Rat IC50
[5] = means ± SE of at least three experiments performed in duplicate, read-out: Bovine IC50
[6] = means ± SE of at least three experiments performed in duplicate, read-out: Human IC50
[7] = means ± SE of at least three experiments performed in duplicate, read-out: Mouse IC50
[8] = po, p.o. 10 mg/kg, vehicle per footnote

Compound	IC50 (rat GnRH receptor; [4])	IC50 (rat GnRH receptor; read-out: rGnRH IC50)	IC50 (bovine GnRH receptor; [5])	IC50 (human GnRH receptor; [6])	IC50 (human GnRH receptor; read-out: hGnRH IC50)	IC50 (mouse GnRH receptor; [7])	IC50 (mouse GnRH receptor; read-out: mGnRH IC50)	half-life [1]	Cmax [1, 8]	Tmax [1, 8]	IC50 (bovine GnRH receptor; read-out: bGnRH IC50)	Human pmol/min/mg 1 μM [2]	Rat male pmol/min/mg 1 μM [3]	IC50 (human GnRH receptor; second value marked * (mostly in parentheses), asterisk not explained, read-out: hGnRH IC50, value marked *)
Cc1ccc(CNC(=O)c2ccc(Cc3cc4c(cc3C)C(C)(C)CCC4(C)C)o2)cc1 [Compound 14]	0.06 ± 0.015 µM	0.06 µM	1.05 ± 0.03 µM	0.08 ± 0.004 µM	0.08 µM	0.29 ± 0.07 µM	0.29 µM	84 min	1600 nM	60 min				
Cc1cc2c(cc1Cc1ccc(C(=O)NCC3CCC(C#N)CC3)o1)C(C)(C)CCC2(C)C (centres unmarked) [Compound 16]	0.56 ± 0.05 µM	0.56 µM	4.38 ± 0.51 µM	0.03 ± 0.006 µM	0.03 µM	1.29 ± 0.21 µM	1.29 µM	40 min						
Cc1cc2c(cc1Cc1ccc(C(=O)NCc3cccc(C)c3C)o1)C(C)(C)CCC2(C)C [Compound 17]	0.03 ± 0.004 µM	0.03 µM	0.67 ± 0.12 µM	0.08 ± 0.02 µM	0.08 µM	0.08 ± 0.02 µM	0.08 µM	132 min						
Cc1ccc(CNC(=O)c2ccc(Cc3cc4c(cc3C)C(C)(C)CCC4(C)C)o2)cc1C [Compound 18]	0.04 ± 0.003 µM	0.04 µM	0.46 ± 0.09 µM	0.055 ± 0.011 µM	0.055 µM	0.115 ± 0.025 µM	0.115 µM	55 min						
CC(=O)c1cccc(NC(=O)c2ccc(Cc3cc4c(cc3C)C(C)(C)CCC4(C)C)o2)c1 [Compound 19]		0.06 µM		0.05 ± 0.003 µM	0.05 µM		0.16 µM	43 min			0.605 µM			
Cc1cc2c(cc1Cc1ccc(C(=O)NCc3cccc(CNC(=N)N)c3)o1)C(C)(C)CCC2(C)C [Compound 24]		0.15 µM			0.55 µM		0.56 µM				0.76 µM			
Cc1cc2c(cc1Cc1ccc(C(=O)NCc3ccc(CNC(=N)N)cc3)o1)C(C)(C)CCC2(C)C [Compound 25]		0.26 µM			0.41 µM		0.95 µM				0.94 µM			
Cc1cc2c(cc1Cc1ccc(C(=O)NCc3cccc(Cl)c3)o1)C(C)(C)CCC2(C)C [Compound 39]		0.22 µM			0.19 µM		0.83 µM				2.34 µM			
Cc1cccc(CNC(=O)c2ccc(Cc3cc4c(cc3C)C(C)(C)CCC4(C)C)o2)c1 [Compound 41]		0.21 µM			0.14 µM		0.49 µM				1.4 µM	185 pmol/min/mg	1606 pmol/min/mg	
Cc1cc2c(cc1Cc1ccc(C(=O)NCc3cccnc3)o1)C(C)(C)CCC2(C)C [Compound 43]		0.33 µM			0.32 µM		0.63 µM				4 µM			0.13 µM
Cc1ccccc1CNC(=O)c1ccc(Cc2cc3c(cc2C)C(C)(C)CCC3(C)C)o1 [Compound 50]		0.15 µM			0.23 µM		0.37 µM				1.52 µM			
Cc1cc2c(cc1Cc1ccc(C(=O)NCc3ccccc3Cl)o1)C(C)(C)CCC2(C)C [Compound 51]		0.12 µM			0.15 µM		0.4 µM				1.93 µM	392 pmol/min/mg	1877 pmol/min/mg	
Cc1cc2c(cc1Cc1ccc(C(=O)NCc3ccc(F)cc3F)o1)C(C)(C)CCC2(C)C [Compound 52]		0.27 µM			0.28 µM		0.66 µM				2.9 µM			
Cc1cc2c(cc1Cc1ccc(C(=O)NCc3cccc(F)c3)o1)C(C)(C)CCC2(C)C [Compound 53]		0.27 µM			0.25 µM		0.63 µM				2.93 µM			
Cc1cc2c(cc1Cc1ccc(C(=O)Nc3cccc4ncccc34)o1)C(C)(C)CCC2(C)C [Compound 64]		0.06 µM			0.125 µM		0.034 µM				0.38 µM			
COC(=O)c1ccc(OC)c(NC(=O)c2ccc(Cc3cc4c(cc3C)C(C)(C)CCC4(C)C)o2)c1 [Compound 72]		0.084 µM			0.13 µM		0.085 µM				1.44 µM	278 pmol/min/mg	4226 pmol/min/mg	
CCNC(=O)[C@@H]1CCCN1C(=O)[C@H](CCCNC(=N)N)NC(=O)[C@H](CC(C)C)NC(=O)[C@@H](C)NC(=O)[C@H](Cc1ccc(O)cc1)NC(=O)[C@H](CO)NC(=O)[C@H](Cc1c[nH]c2ccccc12)NC(=O)[C@H](Cc1c[nH]cn1)NC(=O)[C@@H]1CCC(=O)N1 [GnRH-A, [des-Gly^10,D-Ala^6]GnRH ethylamide, reference compound]	0.00049 ± 0.0001 µM		0.0003 ± 5e-05 µM	0.00034 ± 6e-05 µM		0.00022 ± 3e-05 µM								

Source: patent US7101878B1 (Agouron Pharmaceuticals, Inc., priority 1998, dated 2006)
